Source: PubChem BioAssay (NCI)
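At the GI50, growth is halved. At the TGI there is no net growth.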

Columns and labels:
Assay in all cases: NCI anticancer screen, dose series, 384-well format
A498 renal = test system: A498 renal
A549 NSCLC = test system: A549 NSCLC
ACHN renal = test system: ACHN renal
BT-549 breast = test system: BT-549 breast
CAKI-1 renal = test system: CAKI-1 renal
COLO 205 colon = test system: COLO 205 colon
DU-145 prostate = test system: DU-145 prostate
EKVX NSCLC = test system: EKVX NSCLC
HCC-2998 colon = test system: HCC-2998 colon
HCT-116 colon = test system: HCT-116 colon
HCT-15 colon = test system: HCT-15 colon
HL-60(TB) leukemia = test system: HL-60(TB) leukemia
HOP-62 NSCLC = test system: HOP-62 NSCLC
HOP-92 NSCLC = test system: HOP-92 NSCLC
HS 578T breast = test system: HS 578T breast
HT29 colon = test system: HT29 colon
IGROV1 ovarian = test system: IGROV1 ovarian
KM12 colon = test system: KM12 colon
LOX IMVI melanoma = test system: LOX IMVI melanoma
M14 melanoma = test system: M14 melanoma
MALME-3M melanoma = test system: MALME-3M melanoma
MCF7 breast = test system: MCF7 breast
MDA-MB-435 melanoma = test system: MDA-MB-435 melanoma
MDA-MB-468 breast = test system: MDA-MB-468 breast
MOLT-4 leukemia = test system: MOLT-4 leukemia
NCI-H226 lung = test system: NCI-H226 lung
NCI-H23 lung = test system: NCI-H23 lung
NCI-H322M lung = test system: NCI-H322M lung
NCI-H460 NSCLC = test system: NCI-H460 NSCLC
NCI-H522 lung = test system: NCI-H522 lung
NCI/ADR-RES ovarian = test system: NCI/ADR-RES ovarian
OVCAR-3 ovarian = test system: OVCAR-3 ovarian
OVCAR-4 ovarian = test system: OVCAR-4 ovarian
OVCAR-5 ovarian = test system: OVCAR-5 ovarian
OVCAR-8 ovarian = test system: OVCAR-8 ovarian
PC-3 prostate = test system: PC-3 prostate
RPMI-8226 leukemia = test system: RPMI-8226 leukemia
RXF 393 renal = test system: RXF 393 renal
SF-268 CNS = test system: SF-268 CNS
SF-295 CNS = test system: SF-295 CNS
SF-539 CNS = test system: SF-539 CNS
SK-MEL-28 melanoma = test system: SK-MEL-28 melanoma
SK-MEL-5 melanoma = test system: SK-MEL-5 melanoma
SK-OV-3 ovarian = test system: SK-OV-3 ovarian
SN12C renal = test system: SN12C renal
SNB-19 CNS = test system: SNB-19 CNS
SNB-75 CNS = test system: SNB-75 CNS
SR leukemia = test system: SR leukemia
T-47D breast = test system: T-47D breast
TK-10 renal = test system: TK-10 renal
U251 glioblastoma = test system: U251 glioblastoma
UACC-257 melanoma = test system: UACC-257 melanoma
UACC-62 melanoma = test system: UACC-62 melanoma

With `CCc1cnn2c(NCc3ccc[n+]([O-])c3)cc(N3CCCC[C@H]3CCO)nc12` the GI50 (A498 renal) was less than 10 nM, the TGI (A498 renal) was less than 10 nM and the GI50 (A549 NSCLC) was less than 10 nM. The TGI (A549 NSCLC) was greater than 100000 nM, the GI50 (ACHN renal) was less than 10 nM and the TGI (ACHN renal) was less than 10 nM. For the same compound, the GI50 (BT-549 breast) was less than 10 nM, the TGI (BT-549 breast) was less than 10 nM and the GI50 (CAKI-1 renal) was less than 10 nM. The TGI (CAKI-1 renal) was greater than 100000 nM, the GI50 (COLO 205 colon) was less than 10 nM and the TGI (COLO 205 colon) was less than 10 nM. For the same compound, the GI50 (DU-145 prostate) was less than 10 nM, the TGI (DU-145 prostate) was less than 10 nM and the GI50 (EKVX NSCLC) was less than 10 nM. It also gave a TGI (EKVX NSCLC) of less than 10 nM, a GI50 (HCC-2998 colon) of less than 10 nM and a TGI (HCC-2998 colon) of less than 10 nM. For the same compound, the GI50 (HCT-116 colon) was less than 10 nM, the TGI (HCT-116 colon) was greater than 100000 nM and the GI50 (HCT-15 colon) was less than 10 nM. It also gave a TGI (HCT-15 colon) of 21.8 nM, a GI50 (HL-60(TB) leukemia) of less than 10 nM and a TGI (HL-60(TB) leukemia) of less than 10 nM. It also gave a GI50 (HOP-62 NSCLC) of less than 10 nM, a TGI (HOP-62 NSCLC) of less than 10 nM and a GI50 (HOP-92 NSCLC) of less than 10 nM. It also gave a TGI (HOP-92 NSCLC) greater than 100000 nM, a GI50 (HS 578T breast) of less than 10 nM and a TGI (HS 578T breast) of less than 10 nM. For the same compound, the GI50 (HT29 colon) was less than 10 nM, the TGI (HT29 colon) was less than 10 nM and the GI50 (IGROV1 ovarian) was less than 10 nM. It also gave a TGI (IGROV1 ovarian) of less than 10 nM, a GI50 (KM12 colon) of less than 10 nM and a TGI (KM12 colon) greater than 100000 nM. It also gave a GI50 (LOX IMVI melanoma) of less than 10 nM, a TGI (LOX IMVI melanoma) of less than 10 nM and a GI50 (M14 melanoma) of less than 10 nM. For the same compound, the TGI (M14 melanoma) was less than 10 nM, the GI50 (MALME-3M melanoma) was less than 10 nM and the TGI (MALME-3M melanoma) was less than 10 nM. For the same compound, the GI50 (MCF7 breast) was less than 10 nM, the TGI (MCF7 breast) was greater than 100000 nM and the GI50 (MDA-MB-435 melanoma) was less than 10 nM. It also gave a TGI (MDA-MB-435 melanoma) of less than 10 nM, a GI50 (MDA-MB-468 breast) of less than 10 nM and a TGI (MDA-MB-468 breast) of less than 10 nM. The GI50 (MOLT-4 leukemia) was less than 10 nM, the TGI (MOLT-4 leukemia) was less than 10 nM and the GI50 (NCI-H226 lung) was less than 10 nM. For the same compound, the TGI (NCI-H226 lung) was less than 10 nM, the GI50 (NCI-H23 lung) was less than 10 nM and the TGI (NCI-H23 lung) was less than 10 nM. For the same compound, the GI50 (NCI-H322M lung) was less than 10 nM, the TGI (NCI-H322M lung) was less than 10 nM and the GI50 (NCI-H460 NSCLC) was less than 10 nM. The TGI (NCI-H460 NSCLC) was less than 10 nM, the GI50 (NCI-H522 lung) was less than 10 nM and the TGI (NCI-H522 lung) was less than 10 nM. The GI50 (NCI/ADR-RES ovarian) was 41.3 nM, the TGI (NCI/ADR-RES ovarian) was 250 nM and the GI50 (OVCAR-3 ovarian) was less than 10 nM. The TGI (OVCAR-3 ovarian) was less than 10 nM, the GI50 (OVCAR-4 ovarian) was less than 10 nM and the TGI (OVCAR-4 ovarian) was less than 10 nM. It also gave a GI50 (OVCAR-5 ovarian) of less than 10 nM, a TGI (OVCAR-5 ovarian) of less than 10 nM and a GI50 (OVCAR-8 ovarian) of less than 10 nM. For the same compound, the TGI (OVCAR-8 ovarian) was less than 10 nM, the GI50 (PC-3 prostate) was less than 10 nM and the TGI (PC-3 prostate) was less than 10 nM. It also gave a GI50 (RPMI-8226 leukemia) of less than 10 nM, a TGI (RPMI-8226 leukemia) of less than 10 nM and a GI50 (RXF 393 renal) of less than 10 nM. For the same compound, the TGI (RXF 393 renal) was less than 10 nM, the GI50 (SF-268 CNS) was less than 10 nM and the TGI (SF-268 CNS) was less than 10 nM. For the same compound, the GI50 (SF-295 CNS) was less than 10 nM, the TGI (SF-295 CNS) was greater than 100000 nM and the GI50 (SF-539 CNS) was less than 10 nM. The TGI (SF-539 CNS) was less than 10 nM, the GI50 (SK-MEL-28 melanoma) was less than 10 nM and the TGI (SK-MEL-28 melanoma) was less than 10 nM. For the same compound, the GI50 (SK-MEL-5 melanoma) was less than 10 nM, the TGI (SK-MEL-5 melanoma) was less than 10 nM and the GI50 (SK-OV-3 ovarian) was less than 10 nM. It also gave a TGI (SK-OV-3 ovarian) greater than 100000 nM, a GI50 (SN12C renal) of less than 10 nM and a TGI (SN12C renal) of less than 10 nM. For the same compound, the GI50 (SNB-19 CNS) was less than 10 nM, the TGI (SNB-19 CNS) was less than 10 nM and the GI50 (SNB-75 CNS) was less than 10 nM. The TGI (SNB-75 CNS) was less than 10 nM, the GI50 (SR leukemia) was less than 10 nM and the TGI (SR leukemia) was less than 10 nM. For the same compound, the GI50 (T-47D breast) was less than 10 nM, the TGI (T-47D breast) was greater than 100000 nM and the GI50 (TK-10 renal) was less than 10 nM. For the same compound, the TGI (TK-10 renal) was less than 10 nM, the GI50 (U251 glioblastoma) was less than 10 nM and the TGI (U251 glioblastoma) was less than 10 nM. It also gave a GI50 (UACC-257 melanoma) of less than 10 nM, a TGI (UACC-257 melanoma) of less than 10 nM and a GI50 (UACC-62 melanoma) of less than 10 nM. For the same compound, the TGI (UACC-62 melanoma) was less than 10 nM.
